# Measurements taken from BindingDB's records for doi:10.7270/Q2TX3CSC (Vanderbilt Screening Center for GPCRs, Ion Channels and …, 2009).
# Biological target: T1, Solute carrier family 12 member 5 (Homo sapiens, UniProt Q9H2X9)
# T1 sequence (Q9H2X9 whole entry): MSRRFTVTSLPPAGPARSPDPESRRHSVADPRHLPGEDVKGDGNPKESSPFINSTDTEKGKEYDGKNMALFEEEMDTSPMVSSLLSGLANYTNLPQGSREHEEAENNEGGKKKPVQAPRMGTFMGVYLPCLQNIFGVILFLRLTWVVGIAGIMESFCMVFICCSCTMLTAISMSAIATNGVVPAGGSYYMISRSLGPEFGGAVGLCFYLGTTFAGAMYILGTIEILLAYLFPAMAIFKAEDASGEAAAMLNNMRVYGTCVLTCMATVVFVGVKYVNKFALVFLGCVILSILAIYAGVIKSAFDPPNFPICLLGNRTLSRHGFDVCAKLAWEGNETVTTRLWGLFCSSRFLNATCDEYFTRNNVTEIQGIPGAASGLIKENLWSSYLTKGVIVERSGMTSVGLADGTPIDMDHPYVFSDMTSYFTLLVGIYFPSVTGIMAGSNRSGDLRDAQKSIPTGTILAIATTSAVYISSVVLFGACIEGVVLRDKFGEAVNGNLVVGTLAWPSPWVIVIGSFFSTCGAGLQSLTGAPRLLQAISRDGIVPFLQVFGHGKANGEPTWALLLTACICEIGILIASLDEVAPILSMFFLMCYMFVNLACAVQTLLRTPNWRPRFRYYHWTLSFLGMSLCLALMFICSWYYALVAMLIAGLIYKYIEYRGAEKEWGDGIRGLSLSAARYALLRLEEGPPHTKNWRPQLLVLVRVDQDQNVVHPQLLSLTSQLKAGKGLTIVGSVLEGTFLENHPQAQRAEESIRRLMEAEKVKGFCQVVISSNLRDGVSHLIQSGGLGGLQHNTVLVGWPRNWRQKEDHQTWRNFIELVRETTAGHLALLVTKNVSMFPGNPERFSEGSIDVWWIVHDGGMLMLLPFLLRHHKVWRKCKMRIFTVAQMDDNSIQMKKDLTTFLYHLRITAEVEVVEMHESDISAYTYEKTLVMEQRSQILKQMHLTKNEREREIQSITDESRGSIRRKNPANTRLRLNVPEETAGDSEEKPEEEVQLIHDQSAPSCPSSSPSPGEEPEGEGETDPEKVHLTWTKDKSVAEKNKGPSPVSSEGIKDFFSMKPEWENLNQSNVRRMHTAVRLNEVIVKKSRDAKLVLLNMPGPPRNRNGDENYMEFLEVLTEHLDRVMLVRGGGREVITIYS
# Test: concentration-response of KCC2 transport modulators – cell-based, HEK293 KCC2, FluoZin-2 fluorescence, dose response (AID 1736)
# [1] = inactive by the depositor's call
Compound,EC50 [µM],EC50 [1] [µM]
O=C(OCC(=O)N1CCN(C(=O)c2ccco2)CC1)c1sc2ccccc2c1Cl [3-chloro-1-benzothiophene-2-carboxylic acid [2-[4-[2-furanyl(oxo)methyl]-1-piperazinyl]-2-oxoethyl] ester],0.478,
"O=C(Cn1c(-c2ccc(Cl)cc2)noc1=O)N1CCN(c2ccccc2F)CC1 [3-(4-Chloro-phenyl)-4-{2-[4-(2-fluoro-phenyl)-piperazin-1-yl]-2-oxo-ethyl}-4H-[1,2,4]oxadiazol-5-one]",228,
O=C(NNc1nc(-c2ccccc2)cs1)c1cccs1 [MLS000858987],0.174,
"N#Cc1nc(-c2cccs2)oc1N1CCN(Cc2ccccc2)CC1 [5-(4-benzyl-1-piperazinyl)-2-(2-thienyl)-1,3-oxazole-4-carbonitrile]",3.58,
"O=C(C1CC1)N1CCc2cc(S(=O)(=O)NC3CCN(Cc4ccccc4)CC3)ccc21 [1-[cyclopropyl(oxo)methyl]-N-[1-(phenylmethyl)-4-piperidinyl]-2,3-dihydroindole-5-sulfonamide]",6.33,
O=C(O)/C=C/c1cn(Cc2ccccc2Cl)nc1-c1ccccc1 [(E)-3-[1-(2-chlorobenzyl)-3-phenyl-pyrazol-4-yl]acrylic acid],3.26,
"O=C(Cn1cnc2c(nnn2Cc2ccc(F)cc2)c1=O)NCc1ccc2c(c1)OCO2 [2-[3-(4-fluorobenzyl)-7-keto-triazolo[4,5-d]pyrimidin-6-yl]-N-piperonyl-acetamide]",1.69,
"S=c1[nH]nc(-c2cccc(Cl)c2)n1N=Cc1ccco1 [3-(3-chlorophenyl)-4-(furan-2-ylmethylideneamino)-1H-1,2,4-triazole-5-thione]",,60.1
COC(=O)c1sccc1NC(=S)OC [3-(methoxycarbothioylamino)thiophene-2-carboxylic acid methyl ester],1.78,
Cc1ccc(S(=O)(=O)N(CCC(=O)O)Cc2ccc(Cl)cc2)cc1 [3-[(4-chlorobenzyl)-tosyl-amino]propionic acid],0.491,
"Sc1nnc(Cc2c[nH]c3ccccc23)o1 [5-(1H-indol-3-ylmethyl)-1,3,4-oxadiazole-2(3H)-thione]",16.1,
"O=C(Cn1cnc2c(nnn2Cc2ccc(F)cc2)c1=O)N1CCN(c2ccccc2)CC1 [3-(4-fluorobenzyl)-6-[2-keto-2-(4-phenylpiperazino)ethyl]triazolo[4,5-d]pyrimidin-7-one]",20,
"O=C(OCC(=O)N1CCc2ccccc2C1)c1ccc(N2CCOCC2)c([N+](=O)[O-])c1 [4-(4-morpholinyl)-3-nitrobenzoic acid [2-(3,4-dihydro-1H-isoquinolin-2-yl)-2-oxoethyl] ester]",5.37,
O=C(O)c1cc(-c2ccc(F)cc2F)ccc1O,25.7,
"Fc1ccccc1CSc1nncn1NC/C=C/c1ccccc1 [3-[(2-fluorophenyl)methylsulfanyl]-N-[(E)-3-phenylprop-2-enyl]-1,2,4-triazol-4-amine]",,0.0567
Cc1ccc2c(c1)nnn2C1CCN(S(=O)(=O)c2cccc(S(=O)(=O)N(C)C)c2)CC1 [MLS000033642],3.38,
"CSc1sc(-c2nnc(S)n2C)c2c1C=CCC2 [4-methyl-3-[3-(methylthio)-6,7-dihydro-2-benzothiophen-1-yl]-1H-1,2,4-triazole-5-thione]",,15.7
Cc1c(C(=O)NCCSCc2ccc(F)cc2)cnn1-c1ccc(Cl)cc1 [1-(4-chlorophenyl)-N-[2-[(4-fluorobenzyl)thio]ethyl]-5-methyl-pyrazole-4-carboxamide],6.18,
CNC(=O)/C(=C\C=C\c1ccccc1)NC(=O)c1ccc([N+](=O)[O-])cc1 [MLS000570424],2.8,
O=C(CNC(=O)/C(=C\c1ccc(Br)cc1)NC(=O)c1ccccc1)OCc1ccccc1 [(phenylmethyl) 2-[[(E)-2-benzamido-3-(4-bromophenyl)prop-2-enoyl]amino]ethanoate],0.993,
"Cc1cccc(-c2nc(C[S+]([O-])CC(=O)N3CCc4ccccc4C3)c(C)o2)c1 (stereo unspecified) [1-(3,4-dihydro-1H-isoquinolin-2-yl)-2-[[5-methyl-2-(3-methylphenyl)-1,3-oxazol-4-yl]methylsulfinyl]ethanone]",7.28,
"O=C(Cn1cnc2c(nnn2-c2ccccc2)c1=O)NCCc1ccccc1 [2-(7-keto-3-phenyl-triazolo[4,5-d]pyrimidin-6-yl)-N-phenethyl-acetamide]",27.5,
Cc1ccc2[nH]c(=O)c(CN(CCc3ccccc3)Cc3nnnn3CC3CCCO3)cc2c1 (stereo unspecified) [SMR000003177],4.26,
CC(C)(C)NC(=O)C(c1cccs1)N(CC1CCCO1)C(=O)c1ccc(-c2ccccc2)[nH]1 (stereo unspecified) [N-[2-(tert-butylamino)-2-oxo-1-thiophen-2-ylethyl]-N-(2-oxolanylmethyl)-5-phenyl-1H-pyrrole-2-carboxamide],0.449,
c1ccc(-c2csc(N=NCc3ccco3)n2)cc1 [(2-furfurylideneamino)-(4-phenylthiazol-2-yl)amine],15,
COCCNS(=O)(=O)c1ccc(-c2ccc(Cl)cc2)cc1 [4'-chloro-N-(2-methoxyethyl)-4-biphenylsulfonamide],6,
Cc1cccc(N2CCN(C(=O)CCCn3c(=S)[nH]c4cc5c(cc4c3=O)OCO5)CC2)c1C [MLS000095366],,22.6
Cc1ccc(NC(=O)CCCSc2ccccc2)cc1S(=O)(=O)N1CCOCC1 [MLS000761060],6.79,

# Now from value to compound:
EC50 [µM],EC50 [1] [µM],Compound
5.54,,"Cc1ccc(C)c(NC(=O)CSc2nnc([C@@H](N)Cc3ccccc3)o2)c1 [2-[5-((S)-1-Amino-2-phenyl-ethyl)-[1,3,4]oxadiazol-2-ylsulfanyl]-N-(2,5-dimethyl-phenyl)-acetamide]"
,2.62,COc1ccc(OC)c2sc(NNC(=O)COc3ccccc3)nc12 [MLS000419249]
,0.178,COc1ccc(C(=O)NC(=S)N2CCN(c3ccc([N+](=O)[O-])cc3)CC2)cc1 [4-methoxy-N-[4-(4-nitrophenyl)piperazin-1-yl]carbothioyl-benzamide]
500,,"O=C(O)CC/C(=C\c1ccccc1[N+](=O)[O-])c1nc2ccccc2s1 [(E)-4-(1,3-benzothiazol-2-yl)-5-(2-nitrophenyl)-4-pentenoic acid]"
204,,S=C(NCc1ccccc1Cl)Nc1ccccc1Cl [1-(2-chlorobenzyl)-3-(2-chlorophenyl)thiourea]
38.4,,CSc1ccccc1N=C(S)Nc1ccc(S(N)(=O)=O)cc1 [1-(2-methylsulfanylphenyl)-3-(4-sulfamoylphenyl)thiourea]
244,,"CCOc1ccc2nc(Sc3cc(O)n(-c4cccc(OC)c4)c3O)sc2c1 [3-(6-Ethoxy-benzothiazol-2-ylsulfanyl)-1-(3-methoxy-phenyl)-pyrrolidine-2,5-dione]"
,87700,CN(C)S(=O)(=O)c1ccc(NC(=O)CSc2ncnc3ccccc23)cc1 [MLS000394067]
2.11,,CN(C)S(=O)(=O)c1ccc(Cl)c(C(=O)Nc2nc3ccccc3[nH]2)c1 [SMR000370637]
0.295,,NC(=S)NN=C1C(=O)N(Cc2ccccc2)c2ccccc21 [1-[(Z)-[2-oxidanylidene-1-(phenylmethyl)indol-3-ylidene]amino]thiourea]
9.6,,"O=C(NC(=S)Nc1nc(-c2cccc([N+](=O)[O-])c2)cs1)c1ccccc1Cl [2-chloranyl-N-[[4-(3-nitrophenyl)-1,3-thiazol-2-yl]carbamothioyl]benzamide]"
4.57,,CCn1c(CCNC(=O)c2cccs2)nnc1SCC(=O)Nc1nc(-c2ccccc2)cs1 [MLS000548611]
4.61,,COc1ccc(NC(=S)NC(N)=Nc2nc(C)c3ccccc3n2)cc1 [(1E)-1-[amino-[(4-methyl-2-quinazolinyl)amino]methylidene]-3-(4-methoxyphenyl)thiourea]
1.24,,"COC(=O)[C@@H](NC(=O)O[C@@H]1C(=O)c2ccc(OC)cc2O[C@H]1c1cccc(C(F)(F)F)c1)C(C)C [(2S)-2-[[(2S,3S)-4-keto-7-methoxy-2-[3-(trifluoromethyl)phenyl]chroman-3-yl]oxycarbonylamino]-3-methyl-butyric acid methyl ester]"
21.2,,"O=C(CSc1nnc(C2CC2)n1Cc1ccccc1)c1cc2ccccc2o1 [1-(1-benzofuran-2-yl)-2-[(4-benzyl-5-cyclopropyl-1,2,4-triazol-3-yl)sulfanyl]ethanone]"
3.72,,Cc1ccc(C(=O)Nc2nc(=O)n(C(=O)c3ccccc3Cl)s2)cc1 [MLS000540480]
,1.81,"Cc1nc(CC(=O)Nc2nc(-c3ccccc3)cs2)cs1 [2-(2-methyl-1,3-thiazol-4-yl)-N-(4-phenyl-1,3-thiazol-2-yl)acetamide]"
1.92,,c1ccc(-n2cnc3cc(NCc4ccncc4)ccc32)cc1 [(1-phenylbenzimidazol-5-yl)-(4-pyridylmethyl)amine]
